In patent US10336792B2, “Antimicrobial peptide dendrimers” (priority 2014, dated 2019):
In brackets after ≈: the same amount, converted by molar mass. Positions of bridges follow the written chain, without caps; N, C: chain ends. Non-standard residues stand in square brackets, D forms with d. Residues, ends and D or L forms follow the SMILES beside them. Groups on a side chain read outwards from the residue. Chains are numbered I, II in the order given. Dab = NCC[C@H](N)C(=O)O

Key:
Assay type in all cases: cell-based
[1] = tested on: Bacillus subtilis (strain BR151); conditions: strain BR151
How it was run: (§1)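 Broth microdilution MIC in LB; overnight cultures diluted to OD600 0.001 and mixed 1:1 with ⅔-serially diluted samples (stock 1 mg mL^−1 in H2O), 37° C for 18-24 h. MTT (0.1%) added; MIC read by eye as lowest concentration inhibiting visible growth (yellow).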

[2] = tested on: Escherichia coli (strain DH5α); conditions: DH5α
How it was run: as §1

[3] = tested on: Pseudomonas aeruginosa (strain PA01); assay: microbe, parasite or virus in culture; conditions: strain
How it was run: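 P. aeruginosa PAO1 grown overnight in LB, diluted to OD600 0.001 and mixed with ⅔-step peptide dilutions, then incubated at 37 °C for 18–24 h. After MTT staining, the lowest concentration with no visible growth was read by eye as the MIC.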

| SMILES | MIC B. subtilis BR151 [1] | MIC E. coli DH5α [2] | MIC P. aeruginosa PAO1 [3] |
| --- | --- | --- | --- |
| CC(C)C[C@H](NC(=O)[C@@H](N)CCN)C(=O)NCCCC[C@H](NC(=O)[C@H](CC(C)C)NC(=O)[C@@H](N)CCN)C(=O)N[C@@H](CCN)C(=O)N[C@@H](Cc1c[nH]c2ccccc12)C(=O)NCCCC[C@H](NC(=O)[C@H](Cc1c[nH]c2ccccc12)NC(=O)[C@H](CCN)NC(=O)[C@H](CCCCNC(=O)[C@H](CC(C)C)NC(=O)[C@@H](N)CCN)NC(=O)[C@H](CC(C)C)NC(=O)[C@@H](N)CCN)C(=O)N[C@@H](CCN)C(=O)N[C@@H](Cc1c[nH]c2ccccc12)C(=O)NCCCC[C@H](NC(=O)[C@H](Cc1c[nH]c2ccccc12)NC(=O)[C@H](CCN)NC(=O)[C@H](CCCCNC(=O)[C@H](Cc1c[nH]c2ccccc12)NC(=O)[C@H](CCN)NC(=O)[C@H](CCCCNC(=O)[C@H](CC(C)C)NC(=O)[C@@H](N)CCN)NC(=O)[C@H](CC(C)C)NC(=O)[C@@H](N)CCN)NC(=O)[C@H](Cc1c[nH]c2ccccc12)NC(=O)[C@H](CCN)NC(=O)[C@H](CCCCNC(=O)[C@H](CC(C)C)NC(=O)[C@@H](N)CCN)NC(=O)[C@H](CC(C)C)NC(=O)[C@@H](N)CCN)C(=O)N[C@@H](CCN)C(=O)N[C@@H](C)C(N)=O [MSt-205, (DabL)8(KDabW)4(KDabW)2(KDabA)] (I: H-[Dab]LK([Leu-Dab])[Dab]WK[Dab]WK[Dab]A-NH2 / II: H-[Dab]LK([Leu-Dab])[Dab]WK[Dab]W / III: H-[Dab]LK([Leu-Dab])[Dab]W / IV: H-[Dab]LK([Leu-Dab])[Dab]W; amide I:6-IV:C, I:9-II:C, II:6-III:C; N-terminus assumed) | 2 µg/mL (≈ 0.443 µM) | 2 µg/mL (≈ 0.443 µM) | 3 µg/mL (≈ 0.665 µM) |
| CC(C)C[C@H](NC(=O)[C@@H](N)CCN)C(=O)NCCCC[C@H](NC(=O)[C@H](CC(C)C)NC(=O)[C@@H](N)CCN)C(=O)N[C@@H](CCN)C(=O)N[C@@H](Cc1c[nH]c2ccccc12)C(=O)NCCCC[C@H](NC(=O)[C@H](Cc1c[nH]c2ccccc12)NC(=O)[C@H](CCN)NC(=O)[C@H](CCCCNC(=O)[C@H](CC(C)C)NC(=O)[C@@H](N)CCN)NC(=O)[C@H](CC(C)C)NC(=O)[C@@H](N)CCN)C(=O)N[C@@H](CCN)C(=O)N[C@@H](C)C(=O)NCCCC[C@H](NC(=O)[C@H](C)NC(=O)[C@H](CCN)NC(=O)[C@H](CCCCNC(=O)[C@H](Cc1c[nH]c2ccccc12)NC(=O)[C@H](CCN)NC(=O)[C@H](CCCCNC(=O)[C@H](CC(C)C)NC(=O)[C@@H](N)CCN)NC(=O)[C@H](CC(C)C)NC(=O)[C@@H](N)CCN)NC(=O)[C@H](Cc1c[nH]c2ccccc12)NC(=O)[C@H](CCN)NC(=O)[C@H](CCCCNC(=O)[C@H](CC(C)C)NC(=O)[C@@H](N)CCN)NC(=O)[C@H](CC(C)C)NC(=O)[C@@H](N)CCN)C(=O)N[C@@H](CCN)C(=O)N[C@@H](Cc1c[nH]c2ccccc12)C(N)=O [MSt-206, (DabL)8(KDabW)4(KDabA)2(KDabW)] (I: H-[Dab]LK([Leu-Dab])[Dab]WK[Dab]AK[Dab]W-NH2 / II: H-[Dab]LK([Leu-Dab])[Dab]WK[Dab]A / III: H-[Dab]LK([Leu-Dab])[Dab]W / IV: H-[Dab]LK([Leu-Dab])[Dab]W; amide I:6-IV:C, I:9-II:C, II:6-III:C; N-terminus assumed) | 2 µg/mL (≈ 0.455 µM) | 2 µg/mL (≈ 0.455 µM) | 3 µg/mL (≈ 0.683 µM) |
